Experimental data taken from ChEMBL document CHEMBL1201862, “PubChem BioAssay data set” (2004).
Active and inactive are the calls of the source.

Tests used:
[1] = target: T1, DNA repair protein RAD52 homolog (Homo sapiens, UniProt P43351); type: functional, biochemical
T1 sequence (P43351 whole entry): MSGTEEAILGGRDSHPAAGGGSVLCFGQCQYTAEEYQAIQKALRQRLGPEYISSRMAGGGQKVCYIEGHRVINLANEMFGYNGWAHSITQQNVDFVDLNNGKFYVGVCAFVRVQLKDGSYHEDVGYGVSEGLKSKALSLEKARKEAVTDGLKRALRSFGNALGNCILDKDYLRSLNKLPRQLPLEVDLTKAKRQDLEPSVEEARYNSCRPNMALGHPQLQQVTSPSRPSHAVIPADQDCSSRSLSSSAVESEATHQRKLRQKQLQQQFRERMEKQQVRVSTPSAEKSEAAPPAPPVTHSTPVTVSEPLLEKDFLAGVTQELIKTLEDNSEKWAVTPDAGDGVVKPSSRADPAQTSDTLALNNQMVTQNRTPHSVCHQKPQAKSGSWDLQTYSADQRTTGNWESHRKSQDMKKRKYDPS

[2] = target: T2, Ubiquitin-conjugating enzyme E2 N (Homo sapiens, UniProt P61088); type: functional;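 further: Dose-response confirmation in a TR-FRET assay detecting UBC13-driven polyubiquitin chain formation, inhibition measured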
T2 sequence (P61088 whole entry): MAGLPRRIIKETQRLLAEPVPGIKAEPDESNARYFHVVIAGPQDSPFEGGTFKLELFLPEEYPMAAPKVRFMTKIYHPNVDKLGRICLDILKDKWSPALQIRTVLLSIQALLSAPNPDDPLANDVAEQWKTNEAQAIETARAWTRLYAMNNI

[3] = target: FAD-linked sulfhydryl oxidase ALR (Homo sapiens, UniProt P55789); assay: ALR-catalysed DTT oxidation blockers – biochemical, H2O2 detection, luminescence, cherry-pick, dose response (AID 493248)
[4] = Luminescence Cell-Based Dose Confirmation HTS to Identify Inhibitors of Platelet Dense Granule Release. [Related pubchem assays: 1663 (Primary HTS), 1678 (Summary of Project)]; type: functional
[5] = Counterscreen for inhibitors of Trypanosoma brucei methionyl tRNA synthetase (MetRS): Luminescence-based cell-based high throughput dose response assay to identify compounds that are cytotoxic to Jurkat human T lymphocyte cells.; type: functional
[6] = target: T3, Methionyl-tRNA synthetase, putative (Trypanosoma brucei brucei, UniProt Q38C91); type: functional, Trypanosoma brucei brucei strain 927/4 GUTat10.1
T3 sequence (Q38C91 whole entry): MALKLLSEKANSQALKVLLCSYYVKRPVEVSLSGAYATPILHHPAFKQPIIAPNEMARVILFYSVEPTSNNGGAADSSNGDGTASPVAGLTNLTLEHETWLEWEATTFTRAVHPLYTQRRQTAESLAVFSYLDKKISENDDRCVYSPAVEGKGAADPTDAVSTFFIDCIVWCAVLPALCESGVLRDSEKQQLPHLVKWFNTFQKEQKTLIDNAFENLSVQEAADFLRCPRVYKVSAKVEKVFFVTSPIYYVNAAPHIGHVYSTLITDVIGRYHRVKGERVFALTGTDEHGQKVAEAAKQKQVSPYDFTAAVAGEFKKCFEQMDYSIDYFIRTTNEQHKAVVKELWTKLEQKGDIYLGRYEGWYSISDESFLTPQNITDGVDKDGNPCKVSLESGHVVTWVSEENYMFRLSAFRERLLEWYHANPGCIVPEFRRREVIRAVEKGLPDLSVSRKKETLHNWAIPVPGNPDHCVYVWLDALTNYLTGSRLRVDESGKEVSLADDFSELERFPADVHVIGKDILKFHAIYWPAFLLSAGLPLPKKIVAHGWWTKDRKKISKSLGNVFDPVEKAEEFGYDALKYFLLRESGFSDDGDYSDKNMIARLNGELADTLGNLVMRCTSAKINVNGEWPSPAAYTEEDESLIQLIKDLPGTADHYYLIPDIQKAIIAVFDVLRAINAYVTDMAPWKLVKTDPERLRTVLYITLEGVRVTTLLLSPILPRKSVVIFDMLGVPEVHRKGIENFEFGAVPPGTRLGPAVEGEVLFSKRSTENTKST

[7] = target: Luciferin 4-monooxygenase (Photinus pyralis, UniProt P08659); assay: inhibition of purified Photinus pyralis luciferase – biochemical, luminescence, dose response (AID 1891)
[8] = target: T3, Methionyl-tRNA synthetase, putative; type: functional, Trypanosoma brucei brucei strain 927/4 GUTat10.1; remark: listed apart in the source
[9] = target: Prothrombin (Homo sapiens, UniProt P00734); assay: Thrombin 1536 HTS Dose Response Confirmation. [Related pubchem assays: 1046 (Thrombin 1536 HTS; hits were confirmed in this assay)]; type: functional
[10] = target: T4, Sentrin-specific protease 7 (Homo sapiens, UniProt Q9BQF6); type: functional;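 further: Luminescence-based dose-response confirmation of ultra-high-throughput screening hits, measuring inhibition of SENP7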
T4 sequence (Q9BQF6 whole entry): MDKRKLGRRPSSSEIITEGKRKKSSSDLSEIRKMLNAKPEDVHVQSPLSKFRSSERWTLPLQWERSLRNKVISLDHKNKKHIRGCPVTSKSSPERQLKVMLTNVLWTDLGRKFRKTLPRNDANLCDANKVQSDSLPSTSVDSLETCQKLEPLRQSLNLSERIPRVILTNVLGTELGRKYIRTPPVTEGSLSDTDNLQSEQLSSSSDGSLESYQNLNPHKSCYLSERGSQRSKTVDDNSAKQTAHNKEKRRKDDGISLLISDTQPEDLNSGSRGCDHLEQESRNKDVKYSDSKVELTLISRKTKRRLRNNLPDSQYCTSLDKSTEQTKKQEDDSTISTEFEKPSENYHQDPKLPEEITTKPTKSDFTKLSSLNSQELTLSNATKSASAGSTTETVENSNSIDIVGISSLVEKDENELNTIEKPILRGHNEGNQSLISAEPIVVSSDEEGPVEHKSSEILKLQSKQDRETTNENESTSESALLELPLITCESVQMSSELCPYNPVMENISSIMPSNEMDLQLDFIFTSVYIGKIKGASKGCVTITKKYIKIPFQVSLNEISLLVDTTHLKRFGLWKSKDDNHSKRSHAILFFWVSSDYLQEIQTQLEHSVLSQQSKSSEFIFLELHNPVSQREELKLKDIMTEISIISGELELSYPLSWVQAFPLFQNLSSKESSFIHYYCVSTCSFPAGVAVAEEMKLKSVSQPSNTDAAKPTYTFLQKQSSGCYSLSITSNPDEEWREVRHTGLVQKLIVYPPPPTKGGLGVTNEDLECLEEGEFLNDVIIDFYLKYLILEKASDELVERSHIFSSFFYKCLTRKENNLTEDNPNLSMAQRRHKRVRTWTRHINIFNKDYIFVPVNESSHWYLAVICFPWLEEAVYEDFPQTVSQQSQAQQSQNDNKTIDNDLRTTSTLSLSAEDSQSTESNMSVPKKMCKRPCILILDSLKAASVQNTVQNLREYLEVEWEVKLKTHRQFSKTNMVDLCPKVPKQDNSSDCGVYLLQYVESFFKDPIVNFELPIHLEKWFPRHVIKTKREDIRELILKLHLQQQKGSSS

[11] = target: T5, Caspase-3 (Homo sapiens, UniProt P42574); type: functional;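 further: Dose-response selectivity test against caspase-3 for candidate inhibitors of sentrin-specific proteases (SENPs)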
T5 sequence (P42574 whole entry): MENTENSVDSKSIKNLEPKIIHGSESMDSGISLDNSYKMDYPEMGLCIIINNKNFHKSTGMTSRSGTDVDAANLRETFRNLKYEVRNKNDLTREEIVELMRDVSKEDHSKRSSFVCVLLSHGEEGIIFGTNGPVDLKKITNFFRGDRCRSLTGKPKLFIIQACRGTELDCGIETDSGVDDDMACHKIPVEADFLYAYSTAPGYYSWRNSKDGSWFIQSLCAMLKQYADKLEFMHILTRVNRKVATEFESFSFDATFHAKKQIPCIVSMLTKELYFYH

[12] = target: T6, Sentrin-specific protease 6 (Homo sapiens, UniProt Q9GZR1); type: functional;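 further: Luminescence-based dose-response confirmatory assay of SENP6 inhibition, following up an ultra-high-throughput screen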
T6 sequence (Q9GZR1 whole entry): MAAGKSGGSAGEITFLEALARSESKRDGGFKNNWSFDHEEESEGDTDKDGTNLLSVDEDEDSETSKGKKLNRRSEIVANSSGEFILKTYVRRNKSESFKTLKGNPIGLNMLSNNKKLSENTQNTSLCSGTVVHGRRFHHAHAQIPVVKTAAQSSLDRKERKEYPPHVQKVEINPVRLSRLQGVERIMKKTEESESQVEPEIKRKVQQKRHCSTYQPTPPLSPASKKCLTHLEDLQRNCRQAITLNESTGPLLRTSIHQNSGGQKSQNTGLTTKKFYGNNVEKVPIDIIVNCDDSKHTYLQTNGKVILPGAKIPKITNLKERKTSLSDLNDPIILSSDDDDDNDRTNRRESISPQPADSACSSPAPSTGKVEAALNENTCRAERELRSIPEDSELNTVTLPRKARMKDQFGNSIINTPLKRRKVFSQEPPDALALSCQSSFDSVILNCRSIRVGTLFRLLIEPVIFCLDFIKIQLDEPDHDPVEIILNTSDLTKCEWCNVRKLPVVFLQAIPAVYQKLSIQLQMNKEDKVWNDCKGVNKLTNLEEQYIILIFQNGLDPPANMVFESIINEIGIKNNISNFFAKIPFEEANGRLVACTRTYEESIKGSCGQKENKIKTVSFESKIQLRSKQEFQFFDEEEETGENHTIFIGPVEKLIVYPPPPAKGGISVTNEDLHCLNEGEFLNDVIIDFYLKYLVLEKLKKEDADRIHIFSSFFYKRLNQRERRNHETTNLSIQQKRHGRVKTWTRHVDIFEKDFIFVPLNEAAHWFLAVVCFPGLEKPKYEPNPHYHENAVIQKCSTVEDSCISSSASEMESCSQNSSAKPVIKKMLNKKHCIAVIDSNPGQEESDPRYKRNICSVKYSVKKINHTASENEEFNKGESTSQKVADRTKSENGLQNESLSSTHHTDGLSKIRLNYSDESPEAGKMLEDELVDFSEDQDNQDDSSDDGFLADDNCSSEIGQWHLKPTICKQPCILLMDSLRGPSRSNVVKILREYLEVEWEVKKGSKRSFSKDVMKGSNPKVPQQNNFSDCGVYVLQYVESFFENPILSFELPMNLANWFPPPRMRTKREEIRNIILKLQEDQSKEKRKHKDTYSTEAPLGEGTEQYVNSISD

[13] = target: T7, Sentrin-specific protease 8 (Homo sapiens, UniProt Q96LD8); type: functional;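 further: luminescence read-out of SENP8 inhibition, dose-response confirmation following an ultra-high-throughput screen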
T7 sequence (Q96LD8 whole entry): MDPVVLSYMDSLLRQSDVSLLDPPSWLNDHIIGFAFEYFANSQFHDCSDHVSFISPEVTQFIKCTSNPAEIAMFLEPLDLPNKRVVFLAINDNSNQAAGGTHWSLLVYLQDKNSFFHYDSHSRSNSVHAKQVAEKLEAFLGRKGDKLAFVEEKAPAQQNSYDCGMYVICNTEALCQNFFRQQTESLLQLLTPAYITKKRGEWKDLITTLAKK

[14] = Luminescence Cell-Based Dose Response HTS to Identify Activators of Luciferase Translation or Activity in H4 […] Cells. [Related pubchem assays: 1829 (Project Summary), 1814 (Primary HTS)]; type: functional
[15] = test system: H4; assay: Luminescence Cell-Based Dose Response HTS to Identify Activators of 5'UTR Stem-Loop Driven Prion Protein mRNA Translation in H4 Neuroglioblastoma Cells. [Related pubchem assays: 1829 (Project Summary), 1814 (Primary HTS)]; type: functional; conditions: Homo sapiens
[16] = target: Paired box protein Pax-8 (Homo sapiens, UniProt Q06710); assay: PAX8 transcriptional activity inhibition in RMG-I – RMG-I cells, luciferase, cherry-pick, dose response (AID 687027); type: functional, cell-based;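 further: luciferase reporter driven by Pax8 target thyroperoxidase promoter measured by SteadyGlo luminescence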
[17] = OVCAR8 cell viability loss – plate reader, dry powder samples, PAX8 project, dose response (AID 743197); type: functional, cell-based; conditions: OVCAR-8

Sequence of Luciferin 4-monooxygenase (P08659 whole entry): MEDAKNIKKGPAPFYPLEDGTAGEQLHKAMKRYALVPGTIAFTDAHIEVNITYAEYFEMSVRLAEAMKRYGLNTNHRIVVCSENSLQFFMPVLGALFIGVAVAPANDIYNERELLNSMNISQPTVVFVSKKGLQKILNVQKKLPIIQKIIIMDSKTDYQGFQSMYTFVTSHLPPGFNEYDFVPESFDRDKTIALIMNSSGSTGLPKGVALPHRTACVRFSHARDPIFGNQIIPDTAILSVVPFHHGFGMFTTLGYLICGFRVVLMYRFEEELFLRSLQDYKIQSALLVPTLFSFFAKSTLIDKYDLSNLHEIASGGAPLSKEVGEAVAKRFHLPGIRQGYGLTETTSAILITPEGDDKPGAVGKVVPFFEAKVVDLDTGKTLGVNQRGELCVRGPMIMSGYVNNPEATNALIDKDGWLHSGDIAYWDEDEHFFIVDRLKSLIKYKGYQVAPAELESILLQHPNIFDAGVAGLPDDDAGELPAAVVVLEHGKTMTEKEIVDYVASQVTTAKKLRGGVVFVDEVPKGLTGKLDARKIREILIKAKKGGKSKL
Sequence of Paired box protein Pax-8 (Q06710 whole entry): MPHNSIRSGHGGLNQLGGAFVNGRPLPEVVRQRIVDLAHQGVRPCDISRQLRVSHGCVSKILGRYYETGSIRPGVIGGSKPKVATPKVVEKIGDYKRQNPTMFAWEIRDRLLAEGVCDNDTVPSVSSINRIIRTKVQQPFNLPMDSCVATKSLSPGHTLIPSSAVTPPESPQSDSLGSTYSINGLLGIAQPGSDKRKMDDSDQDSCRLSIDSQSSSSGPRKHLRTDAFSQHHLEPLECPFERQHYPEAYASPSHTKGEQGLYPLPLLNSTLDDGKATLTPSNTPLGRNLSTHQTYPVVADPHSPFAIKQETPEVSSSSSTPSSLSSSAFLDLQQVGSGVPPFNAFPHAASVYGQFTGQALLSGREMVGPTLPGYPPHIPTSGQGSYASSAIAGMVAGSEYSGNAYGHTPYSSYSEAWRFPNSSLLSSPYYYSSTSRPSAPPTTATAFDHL
Sequence of FAD-linked sulfhydryl oxidase ALR (P55789 whole entry): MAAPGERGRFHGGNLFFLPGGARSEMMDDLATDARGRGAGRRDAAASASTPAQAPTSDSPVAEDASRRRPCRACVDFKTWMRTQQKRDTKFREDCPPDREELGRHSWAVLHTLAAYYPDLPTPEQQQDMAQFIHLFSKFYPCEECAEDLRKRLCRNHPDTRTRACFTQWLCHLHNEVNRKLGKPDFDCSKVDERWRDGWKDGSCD

For `OCCN1CCN(CC/C=C2/c3ccccc3Sc3ccc(C(F)(F)F)cc32)CC1`, the AC50 [1] was 21.2 µM (active) and the IC50 [2] was > 20 µM (inactive).
With `C/C(=C1/SC(=S)N(CCC(=O)O)C1=O)c1ccc(O)cc1` the AC50 [3] was 4.14 µM (active), the EC50 [4] was > 112 µM (not active) and the IC50 [5] was 83.3 µM (inactive). The IC50 [6] was 16.6 µM (inactive), the EC50 [7] was > 112 µM (not active) and the IC50 [8] was 9.47 µM (active).
For `S=C(NCc1cccs1)NCC1CCCO1` (stereo not drawn), the IC50 [9] was > 50 µM (not active).
For `Oc1ccccc1-c1csc(-c2ccccc2)n1`, the IC50 [10] was 3.44 µM (active), the IC50 [11] was 16.2 µM (active) and the IC50 [12] was 7.62 µM (active). The IC50 [13] was 10.7 µM (active).
For `CCOC(=O)c1sc(Nc2ccccc2Cl)nc1C`, the IC50 [10] was 8.78 µM (active), the IC50 [11] was 26.6 µM (active) and the EC50 [14] was 1.18 µM (active). For the same compound, the IC50 [12] was 19.8 µM (active), the EC50 [15] was 43.9 µM (active) and the IC50 [13] was 20.3 µM (active).
In the case of `Cc1ccccc1C(=O)Oc1ccc2ccc(O)cc2c1`, the IC50 [10] is reported as 4.59 µM (active), the IC50 [11] is reported as 35.4 µM (active) and the IC50 [12] is reported as 10.4 µM (active). The IC50 [13] was 12.1 µM (active).
For `Cc1ccc(NC(=O)c2ccc3c(c2)OCO3)cc1Cl`, the IC50 [10] was 4.44 µM (active), the IC50 [11] was 14 µM (active) and the IC50 [12] was 5.35 µM (active). The IC50 [13] was > 100 µM (inactive).
With `CCOc1ccc(C(=O)NCC(=O)OC(C)C(=O)NCc2ccco2)cc1OCC` (stereo not drawn) the IC50 [9] was > 50 µM (not active).
With `COc1ccc(CNc2nc(-c3cccnc3)nn2C(=O)c2ccco2)cc1` the IC50 [9] was 1.19 µM (active).
With `CC(C)(Oc1ccc(Cl)cc1)C(=O)OCc1nc(O)c2sccc2n1` the IC50 [5] was 83.3 µM (inactive).
With `CC(C)(Oc1ccc(Cl)cc1)C(=O)OCc1nc2ccsc2c(=O)[nH]1` the IC50 [6] was 21.6 µM (inactive) and the IC50 [8] was 9.89 µM (active).
In the case of `CC(C)C[C@@H]1CN=C(N)N1C[C@@H]1CCCN1C[C@@H](C(C)C)N1C[C@@H](Cc2ccccc2)N(CCc2ccc(Cl)c(Cl)c2)C1=N`, the AC50 [1] is reported as 16.7 µM (active).
With `O=C(NCc1cc(Cl)cc(Cl)c1)c1ccc2[nH]c([C@H]3C[C@H](O)[C@@H](CO)O3)nc2c1` the IC50 [5] was 83.3 µM (inactive), the IC50 [6] was 23.8 µM (inactive) and the IC50 [8] was 13.5 µM (inactive).
In the case of `COc1ccc(NC(=O)Nc2ccc3c(c2)C(=O)N([C@@H](C)CO)C[C@@H](C)[C@@H](CN(C)Cc2ccc(Cl)c(Cl)c2)OCCCC[C@@H](C)O3)cc1`, the AC50 [16] is reported as 14.1 µM (active) and the AC50 [17] is reported as 65.4 µM (active).
